Measured values published in patent US6403343B2, “Method of producing a taxane-type diterpene and a method of obtaining cultured cells which produce the taxane-type dilterpene at a high rate” (Mitsui Chemicals, Inc., priority 1993, dated 2002).

Key:
Type in all cases: cell-based
[1] = system: cultured cells of Taxus baccata LINN; assay: Growth rate and taxane yield, shake culture under controlled oxygen concentration in the gas phase, with or without methyl jasmonate; conditions: max oxygen in gas phase 10%; for yield of baccatin III / yield of cephalomannine / yield of taxol: cell + medium
Description: One gram (fresh weight) of the callus was inoculated to an Erlenmeyer flask containing 20 ml of liquid Woody Plant Medium to which the above-mentioned component had been added to give the same concentration and shake culture was carried out with a rotary shaker (amplification of 25 mm, 100 rpm) and the callus was subcultured in every 21 days to accelerate the growth rate of the callus.
One gram (fresh weight) of the cultured cells thus obtained was inoculated to an Erlenmeyer flask containing 20 ml of liquid Woody Plant Medium to which the above-mentioned component had been added to give the same concentration, and the flask was placed in a chamber (the capacity of 3000 ml) having a gas feed opening and a gas discharge opening, then the chamber was closed hermetically, and air was so mixed with nitrogen that the concentration of the oxygen in a gas to be supplied to the cells to be cultured became 4-15%, and while the gas was supplied through the feed opening at the rate of 25 ml per minute, shake culture was carried out at 25° C. for 21 days.
After completing the culture, cultured cells of Taxus baccata LINN were harvested by filtration and lyophilized, then the dry weight was measured to obtain the growth rate thereof. Taxane-type diterpenes were extracted from the dried cells with methanol and the like, and they were determined by comparing with standard taxol, cephalomannine, and baccatin III using high performance liquid chromatography to measure the yields of the taxane-type diterpenes.

[2] = system: cultured cells of Taxus baccata LINN; assay: Two-stage culture: first stage with potassium peroxodisulfate, second stage with methyl jasmonate; cell yield and taxol yield; conditions: for yield of cells, second stage of the culture / yield of taxol, second stage of the culture: second stage with methyl jasmonate 100 μM on the 14th day; for content of taxol, first stage of the culture / yield of cells, first stage of the culture: added 1st day
Description: After completing the culture, the cultured cells were harvested by filtration and a part of the cells were used as seed cells for the second stage of the culture and the rest of the cells were subjected to the measurement of the cell yield and the taxane content in the cells. Accordingly, 1 g (fresh weight) of the cultured cells were inoculated to an Erlenmeyer flask containing 20 ml of liquid Woody Plant Medium to which naphthalenacetic acid had been added to give the concentration of 10^−5M and shake culture was carried out at 25° C. for 14 days. On the 14th day of the culture, methyl jasmonate was added to the medium to give the concentration in the medium of 100 μM and the culture was further continued for another 7 days. On the other hand, the rest of the cells obtained in the first stage of the culture were lyophilized, then the dry weight was measured to obtain the cell yield thereof per liter of the liquid medium. The content of taxol in the dried cells was measured by high performance liquid chromatography. The yield of the cells and the yield of taxol were measured for the cells obtained by second stage of the culture in the same manner as that for the cells obtained in the first stage of the culture.

[3] = system: cultured cells of T. media; assay: Taxane yield, T. media cultured cells with jasmonic acids added; conditions: 250 μM added on 14th day, 7 more days
Description: The procedure of Example 6 was carried out except that cultured cells of T. media were used.
The procedure of Example 13 was carried out except that cultured cells of T. media were used.
The procedure of Example 22 was carried out except that cultured cells of T. media were used.

[4] = system: cultured cells of Taxus baccata LINN; assay: Taxane-type diterpene yield and cell yield, shake culture of Taxus baccata cells with a jasmonic acid (or jasmone) added
[5] = system: cultured cells of Taxus baccata LINN, layer of 1.07 g/ml or less; assay: Same culture using cells of the specific gravity layer of 1.07 g/ml or less (Ficoll), jasmonic acids added; conditions: 250 μM added on 14th day, 7 more days; cells of layer of 1.07 g/ml or less
Description: (§1) The cells with accelerated growth rate obtained by the method of Example 1 were fractionated firstly by a stainless steel mesh and cell clusters having the size of 250-840 μm were obtained. A medium having a specific gravity of 1.07 (g/ml) was produced by the use of Ficoll and the above-mentioned cells were layered over it and centrifuged at 700 rpm for 6 minutes. The cells were fractionated into two layers according to the difference of the specific gravity. The cells contained in the layer of 1.07 g/ml or less were fractionated and washed with 2% sucrose solution three times or more, to wash off Ficoll. After the washing, 1 g (fresh weight) of the cells was transferred to an Erlenmeyer flask containing 20 ml of liquid Woody Plant Medium and shake culture was carried out at 25° C. for 14 days. […] After completing the culture, the procedure of Example 1 was carried out.
as §1, with “growth rates” for “growth rate”, “Example 8” for “Example 1”, “was inoculated” for “was transferred”
as §1, with “Example 15” for “Example 1”, “was inoculated” for “was transferred”

[6] = system: cultured cells of Taxus brevifolia NUTT; assay: Taxane yield, Taxus brevifolia cultured cells with jasmonic acids added; conditions: 250 μM added on 14th day, 7 more days
Description: After completing the culture, the procedure of Example 1 was carried out.
After completing the culture, the procedure of Example 8 was carried out.
After completing the culture, the procedure of Example 15 was carried out.

[7] = first stage with potassium peroxodisulfate 5 × 10^−3M
[8] = first stage with potassium peroxodisulfate 5 × 10^−4M
[9] = first stage with potassium peroxodisulfate 10^−3M
[10] = first stage with potassium peroxodisulfate 10^−4M
[11] = first stage with potassium peroxodisulfate 10^−5M
[12] = potassium peroxodisulfate 5 × 10^−3M in the medium
[13] = potassium peroxodisulfate 5 × 10^−4M in the medium
[14] = potassium peroxodisulfate 10^−3M in the medium
[15] = potassium peroxodisulfate 10^−4M in the medium
[16] = potassium peroxodisulfate 10^−5M in the medium
[17] = 0.01 μM added on 14th day, 7 more days
[18] = 0.1 μM added on 14th day, 7 more days
[19] = 1 μM added on 14th day, 7 more days
[20] = 10 μM added on 14th day, 7 more days
[21] = 25 μM added 4 times every two days from 7th day, total 100 μM
[22] = 100 μM added on 7th day, 14 more days
[23] = 100 μM added on 14th day, 7 more days
[24] = 100 μM added on first day, 20 more days
[25] = 250 μM added on 14th day, 7 more days
[26] = 500 μM added on 14th day, 7 more days
[27] = 1000 μM added on 14th day, 7 more days

CCC=CCC1C(=O)CCC1CC(=O)OC (stereo not shown) [Example 66]
growth rate ([1]; methyl jasmonate 10 μM): 2.82 times
total yield of taxane ([1]; methyl jasmonate 10 μM): 14.73 mg/L
yield of baccatin III ([1]; methyl jasmonate 10 μM): 2.26 mg/L
yield of cephalomannine ([1]; methyl jasmonate 10 μM): 1.73 mg/L
yield of taxol ([1]; methyl jasmonate 10 μM): 10.24 mg/L
growth rate ([1]; methyl jasmonate 100 μM): 2.45 times
total yield of taxane ([1]; methyl jasmonate 100 μM): 36.05 mg/L
yield of baccatin III ([1]; methyl jasmonate 100 μM): 11.32 mg/L
yield of cephalomannine ([1]; methyl jasmonate 100 μM): 2.29 mg/L
yield of taxol ([1]; methyl jasmonate 100 μM): 22.44 mg/L
growth rate ([1]; methyl jasmonate 1000 μM): 1.47 times
total yield of taxane ([1]; methyl jasmonate 1000 μM): 8.61 mg/L
yield of baccatin III ([1]; methyl jasmonate 1000 μM): 2.10 mg/L
yield of cephalomannine ([1]; methyl jasmonate 1000 μM): 1.47 mg/L
yield of taxol ([1]; methyl jasmonate 1000 μM): 5.04 mg/L

O=S(=O)([O-])OOS(=O)(=O)[O-].[K+].[K+] [Example 77]
yield of cells, second stage of the culture [2, 7]: 12.1 g/L
yield of taxol, second stage of the culture [2, 7]: 11.7 ppm
yield of cells, second stage of the culture [2, 8]: 14.4 g/L
yield of taxol, second stage of the culture [2, 8]: 16.3 ppm
yield of cells, second stage of the culture [2, 9]: 13.0 g/L
yield of taxol, second stage of the culture [2, 9]: 13.6 ppm
yield of cells, second stage of the culture [2, 10]: 15.0 g/L
yield of taxol, second stage of the culture [2, 10]: 20.4 ppm
yield of cells, second stage of the culture [2, 11]: 15.6 g/L
yield of taxol, second stage of the culture [2, 11]: 14.0 ppm
content of taxol, first stage of the culture [2, 12]: 45 ppm
yield of cells, first stage of the culture [2, 12]: 14.0 g/L
content of taxol, first stage of the culture [2, 13]: 183 ppm
yield of cells, first stage of the culture [2, 13]: 15.5 g/L
content of taxol, first stage of the culture [2, 14]: 84 ppm
yield of cells, first stage of the culture [2, 14]: 15.2 g/L
content of taxol, first stage of the culture [2, 15]: 250 ppm
yield of cells, first stage of the culture [2, 15]: 16.2 g/L
content of taxol, first stage of the culture [2, 16]: 97 ppm
yield of cells, first stage of the culture [2, 16]: 17.1 g/L

CC/C=C\C[C@H]1[C@@H](CC(=O)OC)CC[C@@H]1O [methyl cucurbate]
cell yield [3]: 12.3 g/L
yield of baccatin III [3]: 5.2 mg/L
yield of cephalomannine [3]: 0.2 mg/L
yield of taxol [3]: 3.9 mg/L
cell yield [4, 17]: 11.3 g/L
yield of baccatin III [4, 17]: 0.3 mg/L
yield of cephalomannine [4, 17]: 2.6 mg/L
yield of taxol [4, 17]: 4.3 mg/L
cell yield [4, 18]: 11.1 g/L
yield of baccatin III [4, 18]: 0.3 mg/L
yield of cephalomannine [4, 18]: 3.1 mg/L
yield of taxol [4, 18]: 5.4 mg/L
cell yield [4, 19]: 10.4 g/L
yield of baccatin III [4, 19]: 0.3 mg/L
yield of cephalomannine [4, 19]: 3.3 mg/L
yield of taxol [4, 19]: 6.7 mg/L
cell yield [4, 20]: 10.4 g/L
yield of baccatin III [4, 20]: 0.5 mg/L
yield of cephalomannine [4, 20]: 4.0 mg/L
yield of taxol [4, 20]: 11.3 mg/L
cell yield [4, 21]: 10.5 g/L
yield of baccatin III [4, 21]: 14.6 mg/L
yield of cephalomannine [4, 21]: 4.1 mg/L
yield of taxol [4, 21]: 18.2 mg/L
cell yield [4, 22]: 9.5 g/L
yield of baccatin III [4, 22]: 8.4 mg/L
yield of cephalomannine [4, 22]: 4.1 mg/L
yield of taxol [4, 22]: 16.8 mg/L
cell yield [4, 23]: 9.8 g/L
yield of baccatin III [4, 23]: 7.2 mg/L
yield of cephalomannine [4, 23]: 4.4 mg/L
yield of taxol [4, 23]: 15.7 mg/L
cell yield [4, 24]: 6.1 g/L
yield of baccatin III [4, 24]: 0.8 mg/L
yield of cephalomannine [4, 24]: 2.8 mg/L
yield of taxol [4, 24]: 3.9 mg/L
cell yield [4, 25]: 9.6 g/L
yield of baccatin III [4, 25]: 10.6 mg/L
yield of cephalomannine [4, 25]: 5.3 mg/L
yield of taxol [4, 25]: 17.7 mg/L
cell yield [4, 26]: 9.3 g/L
yield of baccatin III [4, 26]: 12.0 mg/L
yield of cephalomannine [4, 26]: 3.0 mg/L
yield of taxol [4, 26]: 13.1 mg/L
cell yield [4, 27]: 5.7 g/L
yield of baccatin III [4, 27]: 1.2 mg/L
yield of cephalomannine [4, 27]: 2.8 mg/L
yield of taxol [4, 27]: 4.2 mg/L
cell yield [5]: 9.7 g/L
yield of baccatin III [5]: 22.2 mg/L
yield of cephalomannine [5]: 3.8 mg/L
yield of taxol [5]: 29.7 mg/L
cell yield [6]: 11.0 g/L
yield of baccatin III [6]: 1.2 mg/L
yield of cephalomannine [6]: 0.3 mg/L
yield of taxol [6]: 1.3 mg/L
